Reference: US9708314B2, “Heterocyclic amide compound” (NISSAN CHEMICAL INDUSTRIES, LTD., priority 2013, dated 2017)

Columns and labels:
Type in all cases: in vivo
[1] = system: transplanted Oryza sativa; test: Test Example 1: effect on crop, application before weed generation in submerged conditions; settings: Application herbicide amount 320 g/ha; Seventeenth Table
In short: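 Submerged pot test: alluvial soil, 4 cm water, seeds sown mixed, 2.5-leaf rice transplanted; emulsion in water applied to surface day of sowing, dose g/ha; greenhouse 25–30° C.; 3 wk; 0–5 rating.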

Alopecurus myosuroides = test: Test Example 4: herbicidal effect by application to foliage (diluvial soil, plastic box); settings: foliage application, 320 g/ha
In short: (§1)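 Read-out is a 0–5 visual grade of herbicidal ratio (5: ≥90%, almost withered; 0: ≤5%) taken three weeks after treatment. Compound was applied as a diluted emulsion to stem and leaf parts of 14-day greenhouse-grown plants (25° C. to 30° C.) at rates expressed as g/ha.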

[2] = system: Echinochloa crus-galli var. crus-galli; test: as above; settings: foliage application, 320 g/ha
In short: as §1

Lolium multiflorum Lam. = test: as above; settings: foliage application, 320 g/ha
In short: as §1

Avena fatua = test: as above; settings: foliage application, 320 g/ha
In short: as §1

Digitaria ciliaris = test: as above; settings: foliage application, 320 g/ha
In short: as §1

Setaria viridis = test: as above; settings: foliage application, 320 g/ha
In short: as §1

Abutilon theophrasti = test: as above; settings: foliage application, 320 g/ha
In short: as §1

Amaranthus retroflexus = test: as above; settings: foliage application, 320 g/ha
In short: as §1

Chenopodium album = test: as above; settings: foliage application, 320 g/ha
In short: as §1

Veronica persica = test: as above; settings: foliage application, 320 g/ha
In short: as §1

Apera spica-venti. = test: as above; settings: foliage application, 320 g/ha
In short: as §1

Galium spurium = test: as above; settings: foliage application, 320 g/ha
In short: as §1

Stellaria media = test: as above; settings: foliage application, 320 g/ha
In short: as §1

[3] = system: directly sowed Oryza sativa; test: Test Example 4: effect on crop by application to foliage (diluvial soil, plastic box); settings: foliage application, 320 g/ha
In short: as §1

Triticum aestivum = test: as above; settings: foliage application, 320 g/ha
In short: as §1

Zea mays = test: as above; settings: foliage application, 320 g/ha
In short: as §1

[4] = system: Beta vulgaris ssp. vulgaris; test: as above; settings: foliage application, 320 g/ha
In short: as §1

Brassica campestris L. = test: as above; settings: foliage application, 320 g/ha
In short: as §1

Glycine max = test: as above; settings: foliage application, 320 g/ha
In short: as §1

CC(C)[S+]([O-])c1nnc2c(C(=O)Nc3nnnn3C)ccc(C(F)(F)F)n12 (stereo not shown) [2-032]
a: transplanted Oryza sativa (effect on crop grade) [1]: 5 (Herbicidal ratio of 90% or more (almost completely withered)) | J (Alopecurus myosuroides) herbicidal effect grade (Alopecurus myosuroides): 3 (Herbicidal ratio of 40% or more and less than 70%) | H (Echinochloa crus-galli var. crus-galli) herbicidal effect grade [2]: 5 (Herbicidal ratio of 90% or more (almost completely withered)) | K (Lolium multiflorum Lam.) herbicidal effect grade (Lolium multiflorum Lam.): 4 (Herbicidal ratio of 70% or more and less than 90%) | I (Avena fatua) herbicidal effect grade (Avena fatua): 5 (Herbicidal ratio of 90% or more (almost completely withered)) | F (Digitaria ciliaris) herbicidal effect grade (Digitaria ciliaris): 5 (Herbicidal ratio of 90% or more (almost completely withered)) | G (Setaria viridis) herbicidal effect grade (Setaria viridis): 5 (Herbicidal ratio of 90% or more (almost completely withered)) | M (Abutilon theophrasti) herbicidal effect grade (Abutilon theophrasti): 5 (Herbicidal ratio of 90% or more (almost completely withered)) | N (Amaranthus retroflexus) herbicidal effect grade (Amaranthus retroflexus): 5 (Herbicidal ratio of 90% or more (almost completely withered)) | O (Chenopodium album) herbicidal effect grade (Chenopodium album): 5 (Herbicidal ratio of 90% or more (almost completely withered)) | R (Veronica persica) herbicidal effect grade (Veronica persica): 5 (Herbicidal ratio of 90% or more (almost completely withered)) | L (Apera spica-venti.) herbicidal effect grade (Apera spica-venti.): 5 (Herbicidal ratio of 90% or more (almost completely withered)) | Q (Galium spurium) herbicidal effect grade (Galium spurium): 5 (Herbicidal ratio of 90% or more (almost completely withered)) | P (Stellaria media) herbicidal effect grade (Stellaria media): 5 (Herbicidal ratio of 90% or more (almost completely withered)) | d (directly sowed Oryza sativa) effect on crop grade [3]: 5 (Herbicidal ratio of 90% or more (almost completely withered)) | e (Triticum aestivum) effect on crop grade (Triticum aestivum): 5 (Herbicidal ratio of 90% or more (almost completely withered)) | b (Zea mays) effect on crop grade (Zea mays): 5 (Herbicidal ratio of 90% or more (almost completely withered)) | f (Beta vulgaris ssp. vulgaris) effect on crop grade [4]: 5 (Herbicidal ratio of 90% or more (almost completely withered)) | g (Brassica campestris L.) effect on crop grade (Brassica campestris L.): 5 (Herbicidal ratio of 90% or more (almost completely withered)) | c (Glycine max) effect on crop grade (Glycine max): 5 (Herbicidal ratio of 90% or more (almost completely withered))

Cn1nnnc1NC(=O)c1ccc(C(F)(F)F)n2c(C[S+](C)[O-])nnc12 (stereo not shown) [2-033]
a: transplanted Oryza sativa (effect on crop grade) [1]: 4 (Herbicidal ratio of 70% or more and less than 90%) | J (Alopecurus myosuroides) herbicidal effect grade (Alopecurus myosuroides): 4 (Herbicidal ratio of 70% or more and less than 90%) | H (Echinochloa crus-galli var. crus-galli) herbicidal effect grade [2]: 5 (Herbicidal ratio of 90% or more (almost completely withered)) | K (Lolium multiflorum Lam.) herbicidal effect grade (Lolium multiflorum Lam.): 4 (Herbicidal ratio of 70% or more and less than 90%) | I (Avena fatua) herbicidal effect grade (Avena fatua): 5 (Herbicidal ratio of 90% or more (almost completely withered)) | F (Digitaria ciliaris) herbicidal effect grade (Digitaria ciliaris): 5 (Herbicidal ratio of 90% or more (almost completely withered)) | G (Setaria viridis) herbicidal effect grade (Setaria viridis): 5 (Herbicidal ratio of 90% or more (almost completely withered)) | M (Abutilon theophrasti) herbicidal effect grade (Abutilon theophrasti): 5 (Herbicidal ratio of 90% or more (almost completely withered)) | N (Amaranthus retroflexus) herbicidal effect grade (Amaranthus retroflexus): 5 (Herbicidal ratio of 90% or more (almost completely withered)) | O (Chenopodium album) herbicidal effect grade (Chenopodium album): 5 (Herbicidal ratio of 90% or more (almost completely withered)) | R (Veronica persica) herbicidal effect grade (Veronica persica): 5 (Herbicidal ratio of 90% or more (almost completely withered)) | L (Apera spica-venti.) herbicidal effect grade (Apera spica-venti.): 5 (Herbicidal ratio of 90% or more (almost completely withered)) | Q (Galium spurium) herbicidal effect grade (Galium spurium): 5 (Herbicidal ratio of 90% or more (almost completely withered)) | P (Stellaria media) herbicidal effect grade (Stellaria media): 5 (Herbicidal ratio of 90% or more (almost completely withered)) | d (directly sowed Oryza sativa) effect on crop grade [3]: 5 (Herbicidal ratio of 90% or more (almost completely withered)) | e (Triticum aestivum) effect on crop grade (Triticum aestivum): 4 (Herbicidal ratio of 70% or more and less than 90%) | b (Zea mays) effect on crop grade (Zea mays): 5 (Herbicidal ratio of 90% or more (almost completely withered)) | f (Beta vulgaris ssp. vulgaris) effect on crop grade [4]: 5 (Herbicidal ratio of 90% or more (almost completely withered)) | g (Brassica campestris L.) effect on crop grade (Brassica campestris L.): 5 (Herbicidal ratio of 90% or more (almost completely withered)) | c (Glycine max) effect on crop grade (Glycine max): 4 (Herbicidal ratio of 70% or more and less than 90%)
